Measured values: ChEMBL document CHEMBL1139569, “Hologram quantitative structure-activity relationships for a series of farnesoid X receptor activators” (Bioorg Med Chem Lett, 2005)

Each molecule was assayed against T1, Bile acid receptor (Homo sapiens, UniProt Q96RI1) (assay: (§1) Effective concentration against farnesoid X receptor (FXR)).
T1 sequence (Q96RI1 whole entry): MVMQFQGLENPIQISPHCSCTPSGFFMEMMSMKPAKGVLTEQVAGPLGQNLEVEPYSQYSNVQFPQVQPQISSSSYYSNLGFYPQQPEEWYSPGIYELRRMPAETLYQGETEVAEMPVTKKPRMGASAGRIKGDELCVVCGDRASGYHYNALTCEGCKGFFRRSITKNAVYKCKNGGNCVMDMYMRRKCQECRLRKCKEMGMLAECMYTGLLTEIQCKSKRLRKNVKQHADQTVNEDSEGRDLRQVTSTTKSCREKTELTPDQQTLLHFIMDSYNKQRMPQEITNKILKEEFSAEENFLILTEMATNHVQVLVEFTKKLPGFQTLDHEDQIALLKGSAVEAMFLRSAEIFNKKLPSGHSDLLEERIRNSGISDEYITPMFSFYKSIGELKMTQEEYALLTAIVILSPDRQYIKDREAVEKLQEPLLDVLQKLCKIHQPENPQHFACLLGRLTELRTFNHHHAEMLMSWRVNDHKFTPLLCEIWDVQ

Row | SMILES | EC50 [µM]
1 | COC(=O)/C=C/c1cccc(N(Cc2ccc(-c3c(OC)cccc3OC)cc2)C(=O)NC(C)C)c1 | 0.562
2 | COC(=O)/C=C/c1cccc(N(Cc2cc(OC)cc(OC)c2)C(=O)C2CCCCC2)c1 | 0.603
3 | COC(=O)/C=C/c1cccc(N(Cc2ccc(/C=C/C(=O)OC(C)(C)C)cc2O)C(=O)C2CCCCC2)c1 | 1
4 | COC(=O)/C=C/c1cccc(N(Cc2ccc(/C=C/C(=O)O)cc2)C(=O)C2CCCCC2)c1 | 1
5 | COC(=O)/C=C/c1cccc(N(Cc2ccc(-c3cccc(C)c3)cc2)C(=O)NC(C)C)c1 | 1.32
6 | COC(=O)/C=C/c1cccc(N(Cc2ccc(/C=C/c3cccc(F)c3)cc2)C(=O)NC(C)C)c1 | 0.468
7 | COC(=O)/C=C/c1cccc(N(Cc2ccc(-c3cccc(OC)c3)cc2)C(=O)C(C)C)c1 | 0.0724
8 | COC(=O)/C=C/c1cccc(N(Cc2ccc(-c3cccc(Cl)c3)cc2)C(=O)NC(C)C)c1 | 1.41
9 | COC(=O)/C=C/c1cccc(N(Cc2ccc(/C=C/c3cccc(Cl)c3)cc2)C(=O)C(C)C)c1 | 0.162
10 | COC(=O)/C=C/c1cccc(N(Cc2ccc(/C=C/c3ccccc3)cc2)C(=O)C(C)C)c1 | 0.0646
11 | COC(=O)/C=C/c1cccc(N(Cc2ccc(-c3ccc4c(c3)OCO4)cc2)C(=O)C(C)C)c1 | 0.0191
12 | COC(=O)/C=C/c1cccc(N(Cc2ccc(/C=C/c3ccccc3F)cc2)C(=O)C(C)C)c1 | 0.0708
13 | COC(=O)/C=C/c1cccc(N(Cc2ccc(-c3ccc(F)c(Cl)c3)cc2)C(=O)C(C)C)c1 | 0.129
14 | CC(C)(C)OC(=O)/C=C/c1ccc(CN(C(=O)C2CCCCC2)c2cccc(/C=C/C(=O)OC(C)(C)C)c2)cc1 | 1

Results, then the molecule that gave them:

Row | EC50 [µM] | SMILES
15 | 0.0776 | COC(=O)/C=C/c1cccc(N(Cc2ccc(-c3cccc(OC)c3)cc2)C(=O)C2CCCCC2)c1
16 | 0.151 | COC(=O)/C=C/c1cccc(N(Cc2ccc(/C=C/c3c(Cl)cccc3Cl)cc2)C(=O)C2CCCCC2)c1
17 | 0.186 | COC(=O)/C=C/c1cccc(N(Cc2ccc(/C=C/c3ccc(F)cc3)cc2)C(=O)C2CCCCC2)c1
18 | 0.234 | COC(=O)/C=C/c1cccc(N(Cc2ccc(-c3cc(Cl)ccc3OC)cc2)C(=O)C2CCCCC2)c1
19 | 0.263 | COC(=O)/C=C/c1cccc(N(Cc2ccc(-c3ccc(OC(F)(F)F)cc3)cc2)C(=O)C2CCCCC2)c1
20 | 0.417 | COC(=O)/C=C/c1cccc(N(Cc2ccc(-c3cccc(OC(F)(F)F)c3)cc2)C(=O)C2CCCCC2)c1
21 | 0.166 | COC(=O)/C=C/c1cccc(N(Cc2ccc(/C=C/c3cccc(Cl)c3)cc2)C(=O)C2CCCCC2)c1

Each molecule was assayed against T1, Bile acid receptor (assay: as §1).

Row | SMILES | EC50 [µM]
22 | COC/C=C/c1ccc(CN(C(=O)C2CCCCC2)c2cccc(/C=C/C(=O)OC)c2)cc1 | 0.233
23 | COC(=O)/C=C/c1cccc(N(Cc2ccc(/C=C/C(=O)OC(C)(C)C)cc2OCc2ccccc2)C(=O)C2CCCCC2)c1 | > 1
24 | CCOC/C=C/c1cccc(N(Cc2ccc(/C=C/C(=O)OC(C)(C)C)cc2)C(=O)C2CCCCC2)c1 | 0.22
25 | COC(=O)/C=C/c1cccc(N(Cc2ccc(/C=C/C(=O)OCc3ccccc3)cc2)C(=O)C2CCCCC2)c1 | > 1
26 | COC(=O)/C=C/c1cccc(N(Cc2ccc(/C=C/C(=O)OC(C)(C)C)cc2OC)C(=O)C2CCCCC2)c1 | > 1
27 | COC(=O)/C=C/c1cccc(N(Cc2ccc(/C=C/C(=O)N(C)C)cc2)C(=O)C2CCCCC2)c1 | > 1
28 | CCOC(=O)COc1cc(/C=C/C(=O)OC(C)(C)C)ccc1CN(C(=O)C1CCCCC1)c1cccc(/C=C/C(=O)OC)c1 | > 1
29 | COC(=O)/C=C/c1cccc(N(Cc2ccc(/C=C/C(=O)OC(C)(C)C)cc2OC(C)=O)C(=O)C2CCCCC2)c1 | > 1
30 | COC/C=C/c1cccc(N(Cc2ccc(/C=C/C(=O)OC(C)(C)C)cc2)C(=O)C2CCCCC2)c1 | 0.243
31 | CC(C)(C)OC(=O)/C=C/c1cccc(N(Cc2ccc(CCC(=O)OC(C)(C)C)cc2)C(=O)C2CCCCC2)c1 | > 1
32 | COC(=O)/C=C/c1cccc(N(Cc2ccc(/C=C/C(=O)OC(C)(C)C)cc2O)C(=O)C2CCCCC2)c1 | > 1
33 | COC(=O)/C=C/c1cccc(N(Cc2ccc(/C=C/c3scnc3C)cc2)C(=O)C(C)C)c1 | 0.228
34 | CC(C)(C)OC(=O)/C=C/c1ccc(CN(C(=O)C2CCCCC2)c2cccc(/C=C/C(N)=O)c2)cc1 | > 1
35 | COC(=O)/C=C/c1cccc(N(Cc2ccc(/C=C/C(=O)O)cc2)C(=O)C2CCCCC2)c1 | > 1
36 | COC(=O)/C=C/c1cccc(N(Cc2ccc(/C=C/C(=O)OC(C)(C)C)cc2OS(C)(=O)=O)C(=O)C2CCCCC2)c1 | > 1
37 | COC(=O)/C=C/c1cccc(N(Cc2ccc(/C=C/c3ccccn3)cc2)C(=O)C(C)C)c1 | 0.31
38 | COC(=O)/C=C/c1cccc(N(Cc2ccc(/C=C/C(=O)NC(C)(C)C)cc2)C(=O)C2CCCCC2)c1 | > 1
39 | COC(=O)/C=C/c1cccc(N(Cc2ccc(/C=C/c3scnc3C)cc2)C(=O)C2CCCCC2)c1 | 0.227
40 | COC(=O)/C=C/c1cccc(N(Cc2ccc(/C=C/C(=O)OC(C)(C)C)cc2OC(=O)c2ccccc2)C(=O)C2CCCCC2)c1 | > 1
41 | CCOC(=O)/C=C/c1ccc(CN(C(=O)C2CCCCC2)c2cccc(/C=C/C(=O)OC)c2)cc1 | > 1
42 | CC(C)(C)OC(=O)/C=C/c1ccc(CN(C(=O)C2CCCCC2)c2cccc(/C=C/C(=O)OC(C)(C)C)c2)cc1 | > 1
43 | COC(=O)/C=C/c1ccc(CN(C(=O)C2CCCCC2)c2cccc(/C=C/C(=O)OC)c2)cc1 | > 1

Other lines, results leading:

Row | EC50 [µM] | SMILES
44 | 0.064 | COC(=O)/C=C/c1cccc(N(Cc2ccc(/C=C/c3ccccc3F)cc2)C(=O)C2CCCCC2)c1
45 | 0.15 | COC(=O)/C=C/c1cccc(N(Cc2ccc(/C=C/c3c(Cl)cccc3Cl)cc2)C(=O)C2CCCCC2)c1
46 | 0.206 | COC(=O)/C=C/c1cccc(N(Cc2ccc(-c3ccc(C)s3)cc2)C(=O)C2CCCCC2)c1
47 | 0.185 | COC(=O)/C=C/c1cccc(N(Cc2ccc(/C=C/c3ccc(F)cc3)cc2)C(=O)C2CCCCC2)c1
48 | 0.038 | COC(=O)/C=C/c1cccc(N(Cc2ccc(-c3ccc4c(c3)OCO4)cc2)C(=O)C2CCCCC2)c1
49 | 0.208 | COC(=O)/C=C/c1cccc(N(Cc2ccc(/C=C/c3ccc(OC)cc3)cc2)C(=O)C2CCCCC2)c1
50 | 1.47 | COC(=O)/C=C/c1cccc(N(Cc2ccc(/C=C/c3cc(C(F)(F)F)cc(C(F)(F)F)c3)cc2)C(=O)C2CCCCC2)c1
51 | 0.309 | COC(=O)/C=C/c1cccc(N(Cc2ccc(/C=C/c3ccccn3)cc2)C(=O)C2CCCCC2)c1
52 | 0.165 | COC(=O)/C=C/c1cccc(N(Cc2ccc(/C=C/c3cccc(Cl)c3)cc2)C(=O)C2CCCCC2)c1
53 | 0.077 | COC(=O)/C=C/c1cccc(N(Cc2ccc(-c3c(OC)cccc3OC)cc2)C(=O)C2CCCCC2)c1
54 | 0.086 | COC(=O)/C=C/c1cccc(N(Cc2ccc(/C=C/c3cccc(F)c3)cc2)C(=O)C2CCCCC2)c1
55 | 0.025 | COC(=O)/C=C/c1cccc(N(Cc2ccc(-c3ccc(N(C)C)cc3)cc2)C(=O)C2CCCCC2)c1 [FEXARAMINE]
